# Article PMC6522941, “Design, synthesis, and anticancer evaluation of novel quinoline derivatives of ursolic acid with hydrazide, oxadiazole, and thiadiazole moieties as potent MEK inhibitors” (Journal of Enzyme Inhibition and Medicinal Chemistry, 2019)
# Tests used:
# [1] = test system: MDA-MB-231 cells; assay: MTT cytotoxic assay, MDA-MB-231; assay type: cell-based, human; conditions: Homo sapiens, MDA-MB-231, 72 h
# Description: Human breast cancer cell line (MDA-MB-231), cervical carcinoma cell line (HeLa), the liver cancer cell line (SMMC-7721) and normal hepatocyte cell line (QSG-7701) were maintained in Dulbecco Modified Eagle Medium (DMEM) containing 4.0 mM L-Glutamine and 4500 mg/L Glucose supplemented with 10% (v/v) foetal bovine serum (FBS) and 100 U/mL penicillin/streptomycin at 37 °C in humidified atmosphere of 5% CO2 and 95% air.
# Exponentially growing MDA-MB-231, Hela and SMMC-7721 cell lines were seeded into 96-well plate for 100 μL and treated with different concentrations of the synthetic compounds for 72 h, and then 10 μL of MTT (10 mg/mL) was added and incubation for 3 ∼ 4 h at 37 °C. The generated purple formazan crystals from viable can be dissolved by adding 100 μL DMSO. The plates were swirled gently for 5 min and quantified by measuring the OD of the plates at the wavelength of 540 nm. Each concentration was repeated in three wells and the same experimental condition was provided for all compounds. The results were expressed as IC50 values with standard deviations, which was defined as the concentration at which 50% survival of cells was discerned. Etoposide was co-assayed as positive control.
# The in vitro cytotoxic activity of derivatives 3a–d, 4a–h, 5a–h, and 6a–h were evaluated by MTT assay against human breast cancer cell line (MDA-MB-231), cervical carcinoma cell line (HeLa), hepatocarcinoma cell line (SMMC-7721) and human normal hepatocyte cell line (QSG-7701). The anticancer drug etoposide was co-assayed as the positive control. All tested compounds were dissolved in DMSO and the stock solutions were diluted by DMEM medium before treatment of the cultured cells.
# [2] = test system: Cytochrome c, Bax, Bcl-2, Caspase-3, Caspase-9 in HeLa cells; assay: Western blot of mitochondrial apoptosis markers; assay type: cell-based, human; conditions: 0.1 and 0.2 μM, 48 h
# Description: (§1) HeLa cells were seeded at a density of 5 × 10^6 cells per well and attached for 8 h, and then treated with different concentrations of compound 4d for 48 h. After the treatment, the cells were harvested and washed twice with PBS. The harvested cells were lysed with radio-immunoprecipitation assay (RIPA) lysis buffer (Beyotime Biotech., Nantong, China) with 1% cocktail (Sigma-Aldrich, St. Louis, MO, USA). Whole-cell protein lysates were prepared and centrifuged at 12,000 rpm for 10 min at 4 °C. The total proteins were determined using Bradford reagent (Bio-Rad Laboratories, Inc., Hercules, CA, USA). Exactly 40 μg of protein per lane was separated through sodium dodecyl sulphate-polyacrylamide gel electrophoresis and then transferred onto a polyvinylidene difluoride membrane (Millipore, Bedford, MA, USA). The membranes were incubated with each antibody and detected through immunoblot analysis. All of the antibodies were purchased from Cell signalling Technology, Inc. (Boston, MA, USA) and diluted in accordance with the manufacturer’s instruction. Proteins were visualised using a C-Digit® imaging system (LI-COR, Lincoln, NE, USA).
# To further explore whether compound 4d induced apoptosis via the mitochondrial signalling pathway, a number of key protein markers involved in mitochondria-mediated apoptosis were examined by Western blot analysis. The Bcl-2 family members are important regulators of the mitochondrial apoptotic pathway. Two most important members of Bcl-2 family, the anti-apoptotic protein Bcl-2 and the pro-apoptotic protein Bax, are key regulators of this progress. As shown in Figure 6(a), the expression level of Bax was elevated in HeLa cells compared with the control group, whereas the expression level of Bcl-2 was decreased after treatment with compound 4d for 48 h. […] Moreover, cytochrome c is reported as a key protein involved in the activation of the downstream caspases that trigger apoptosis. Caspases are a family of cysteinyl aspartate-specific proteases involved in apoptosis, which can be classified into groups of initiators (caspases 8, 9, and 10) and executioners (caspases 3, 6, and 7)[48]^,[49]. In this assay, we also examined the roles of cytochrome c, caspase-3, and caspase-9 in the cellular response to compound 4d.
# [3] = target: T1, MEK1 (Homo sapiens, UniProt Q02750); assay: In vitro MEK1 kinase assay (ADP-Glo); assay type: biochemical; conditions: recombinant GST-MEK1, GST-ERK2 (inactive) substrate, 10 μM ATP
# T1 construct: purchased Carna Biosciences, Kobe, Japan
# T1 sequence (Q02750 whole entry): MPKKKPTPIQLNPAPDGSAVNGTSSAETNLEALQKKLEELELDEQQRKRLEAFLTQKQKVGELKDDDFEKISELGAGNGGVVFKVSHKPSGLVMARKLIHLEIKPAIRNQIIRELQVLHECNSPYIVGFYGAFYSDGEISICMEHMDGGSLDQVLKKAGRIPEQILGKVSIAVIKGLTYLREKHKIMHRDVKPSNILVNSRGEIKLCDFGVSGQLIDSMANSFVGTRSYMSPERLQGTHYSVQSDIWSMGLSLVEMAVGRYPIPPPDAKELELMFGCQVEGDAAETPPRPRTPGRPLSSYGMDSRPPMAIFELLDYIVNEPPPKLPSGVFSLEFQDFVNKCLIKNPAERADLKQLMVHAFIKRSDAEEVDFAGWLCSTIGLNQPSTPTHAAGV
# Description: An in vitro kinase assay of MEK1 was performed using ADP-Glo kinase assay (Promega, Madison, WI, USA) according to the manufacturer’s protocol. […] Reactions were stopped by adding 5 μL of ADP-Glo reagent to each well. After incubating at 22 °C for 40 min, 10 μL of the kinase detection reagent was added and the plates were incubated for another 30 min at 22 °C in the dark. The reaction mixture was analysed by EnSpire (PerkinElmer, Waltham, MA, USA).
# The Raf/MEK/ERK pathway is the downstream of Ras activation, and the abnormal expression or phosphorylation of the associated proteins is essential for cancer cell proliferation. In this pathway, MEK kinase is an important anticancer target because of its key roles in regulating the cancer cell apoptosis and oncogenic transformation[51]^,[52]. Among MEK proteins, MEK1 and MEK2 are known as substrate-specific kinases which phosphorylate their downstream kinase ERK1/2.
# [4] = test system: ERK1/2 and pERK1/2 in HeLa cells; assay: Western blot of ERK and pERK; assay type: cell-based, human; conditions: 48 h
# Description: as §1
# Subsequently, to evaluate the MEK inhibition of compound 4d in cancer cells, western blot analyses were also carried out to evaluate the expression levels of ERK and phosphorylated ERK (pERK) proteins in compound 4d-treated HeLa cells.
# [5] = test system: p90RSK, p-p90RSK, BAD, BIM in HeLa cells; assay: Western blot of downstream proteins of ERK; assay type: cell-based, human; conditions: 0.05, 0.1, 0.2 μM, 48 h
# Description: as §1
# In addition, the effect of compound 4d on the downstream proteins of ERK (p90RSK, BAD, and BIM) was also investigated by western blot analysis. It is known that activated ERK1/2 (p-ERK1/2) directly phosphorylates and activates p90RSK, which subsequently decreases the level of pro-apoptotic BH3-only proteins BIM and BAD and inhibits their apoptosis-promoting activity.
smiles,measurement,setting,value
"CC(=O)NNC(=O)C12CCC(C)C(C)C1C1=CCC3C4(C)Cc5cc6cc(Cl)ccc6nc5C(C)(C)C4CCC3(C)C1(C)CC2 (centres unmarked) [Compound 4d, N-[5′-chloro-ursa-12-en-(2,3)-quinoline-28-oyl]-acetohydrazide]",IC50,[1],0.12 ± 0.01 µM
same,level of caspase-3,[2],significantly increased
same,level of caspase-9,[2],significantly increased
same,ratio of Bax/Bcl-2,[2],increased in a dose-dependent manner
same,expression level of Bax,[2]; compared with control,elevated
same,expression level of Bcl-2,[2]; compared with control,decreased
same,level of cytochrome c,[2]; cytosol,significantly increased
same,IC50,[3],64 nM
same,"expression level of pERK1/2, % of the control group",[4]; 0.05 μM,74.7%
same,"expression level of pERK1/2, % of the control group",[4]; 0.1 μM,41.3%
same,"expression level of pERK1/2, % of the control group",[4]; 0.2 μM,29.5%
same,expression levels of ERK1/2,"[4]; 0.05, 0.1, 0.2 μM",slightly decreased
same,expression levels of pERK1/2,"[4]; 0.05, 0.1, 0.2 μM",significantly downregulated
same,expression level of p90RSK,[5],significantly decreased
same,expression level of p-p90RSK,[5],significantly decreased
same,level of BAD,[5],upregulated
same,level of BIM,[5],upregulated
